{
  "source": "paper PMC9166630",
  "about": "“SAR Probing of KX2-391 Provided Analogues With Juxtaposed Activity Profile Against Major Oncogenic Kinases” (Frontiers in Oncology, 2022)",
  "origin": "cited, not measured here",
  "tested_on": "HT-29 colon cancer cell line",
  "parameters": "method as in PMID 29617135",
  "details": "read-out: GI50, HT29 (Colon Cancer); cited from earlier work",
  "data": [
    {"smiles": "O=C(Cc1ccc(-c2ccccc2)cc1)NCc1cccc(F)c1", "note": "[KX1-136]", "values": [
      {"measurement": "GI50", "value": 877, "unit": "nM"}
    ]}
  ]
}
